Data reported in US9518026B2, “5-aminopyrazole-4-carboxamide inhibitors of CDPK1 from T. gondii and C. parvum” (UNIVERSITY OF WASHINGTON THROUGH ITS CENTER FOR …, priority 2013, dated 2016).
Like-named read-outs stand apart in the source and are kept apart here.

What was measured:
CpCDPK1 = CpCDPK1 (Cryptosporidium parvum (strain Iowa II), UniProt A3FQ16); assay: biochemical; settings: Table 1; KinaseGlo, Syntide 2 peptide substrate; read-out: CpCDPK1 IC50
TgCDPK1 = TgCDPK1 (Toxoplasma gondii, UniProt Q9BJF5); assay: biochemical; settings: read-out: TgCDPK1 IC50
TgCDPK1, sequence (Q9BJF5 1-507): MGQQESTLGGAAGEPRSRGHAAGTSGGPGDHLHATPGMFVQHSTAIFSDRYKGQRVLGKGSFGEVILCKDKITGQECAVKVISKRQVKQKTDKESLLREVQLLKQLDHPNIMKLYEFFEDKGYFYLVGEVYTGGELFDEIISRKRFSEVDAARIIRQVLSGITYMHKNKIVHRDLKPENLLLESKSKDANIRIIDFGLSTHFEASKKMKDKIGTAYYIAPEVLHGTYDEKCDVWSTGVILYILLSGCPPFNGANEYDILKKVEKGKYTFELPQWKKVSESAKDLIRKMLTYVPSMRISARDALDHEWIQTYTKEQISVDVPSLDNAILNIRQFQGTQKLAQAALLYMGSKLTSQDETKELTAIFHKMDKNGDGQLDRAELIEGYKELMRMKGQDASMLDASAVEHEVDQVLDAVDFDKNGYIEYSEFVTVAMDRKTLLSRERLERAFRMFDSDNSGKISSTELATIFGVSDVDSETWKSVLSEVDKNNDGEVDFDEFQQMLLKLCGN

[1] = Table 1, KinaseGlo, Syntide 2 peptide substrate

CpCDPK1, sequence (A3FQ16 1-538): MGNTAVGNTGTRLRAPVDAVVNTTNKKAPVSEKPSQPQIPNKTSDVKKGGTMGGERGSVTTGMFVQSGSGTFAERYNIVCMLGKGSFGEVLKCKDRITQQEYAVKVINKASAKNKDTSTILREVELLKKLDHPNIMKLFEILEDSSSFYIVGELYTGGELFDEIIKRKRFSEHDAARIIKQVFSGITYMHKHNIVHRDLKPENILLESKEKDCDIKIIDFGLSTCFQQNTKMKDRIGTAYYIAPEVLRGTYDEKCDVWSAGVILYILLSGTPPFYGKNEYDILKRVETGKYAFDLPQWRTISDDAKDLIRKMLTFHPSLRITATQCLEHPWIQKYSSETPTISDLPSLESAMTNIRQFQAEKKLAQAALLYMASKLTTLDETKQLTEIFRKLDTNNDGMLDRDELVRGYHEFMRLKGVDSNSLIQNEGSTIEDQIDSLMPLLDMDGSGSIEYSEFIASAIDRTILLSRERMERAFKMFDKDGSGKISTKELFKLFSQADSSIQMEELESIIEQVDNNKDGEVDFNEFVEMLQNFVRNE

| SMILES | IC50 (CpCDPK1) [µM] | IC50 (TgCDPK1; [1]) [µM] | IC50 (TgCDPK1) [µM] |
| --- | --- | --- | --- |
| CCOc1ccc2cc(-c3nn(C(C)C(C)C)c(N)c3C(N)=O)cnc2c1 (centres unmarked) [Compound 1628, 5-amino-3-(7-ethoxyquinolin-3-yl)-1-(3-methylbutan-2-yl)-1H-pyrazole-4-carboxamide] | 0.005 |  |  |
| CC(C)(C)n1nc(-c2cnc3cc(OCC4CC4)ccc3c2)c(C(N)=O)c1N [Compound 1585, 5-amino-1-(tert-butyl)-3-(7-(cyclopropylmethoxy)quinolin-3-yl)-1H-pyrazole-4-carboxamide] | 0.009 |  |  |
| CCOc1ccc2cc(-c3nn(CC(C)(C)O)c(N)c3C(N)=O)cnc2c1 [Compound 1641, 5-amino-3-(7-ethoxyquinolin-3-yl)-1-(2-hydroxy-2-methylpropyl)-1H-pyrazole-4-carboxamide] | 0.021 | 0.041 |  |
| CCOc1ccc2cc(-c3nn(C(CO)CO)c(N)c3C(N)=O)cnc2c1 [Compound 1629, 5-amino-1-(1,3-dihydroxypropan-2-yl)-3-(7-ethoxyquinolin-3-yl)-1H-pyrazole-4-carboxamide] | 0.052 | 0.12 |  |
| CCOc1ccc2cc(-c3nn(C(C)(C)C)c4ncnc(N)c34)ccc2c1 [Compound 4, 1-tert-butyl-3-(6-ethoxynaphthalen-2-yl)-1H-pyrazolo[3,4-d]pyrimidin-4-amine, reference compound] | 0.043 |  |  |
| NC(=O)c1c(-c2ccc3ccccc3c2)nn(CC2CCNCC2)c1N [Compound 6, 5-amino-3-(naphthalen-2-yl)-1-(piperidin-4-ylmethyl)-1H-pyrazole-4-carboxamide] | 0.064 |  | 0.035 |
| CC(C)(C)n1nc(-c2cnc3cc(OC4CC4)ccc3c2)c(C(N)=O)c1N [Compound 1586, 5-amino-1-(tert-butyl)-3-(7-cyclopropoxyquinolin-3-yl)-1H-pyrazole-4-carboxamide] | 0.005 |  |  |
| CC(C)n1nc(-c2ccc3ccccc3c2)c(C(N)=O)c1N [Compound 13, 5-amino-1-isopropyl-3-(naphthalen-2-yl)-1H-pyrazole-4-carboxamide] | 0.007 |  |  |
| CCOc1ccc2cc(-c3nn(C(C)C(C)(C)O)c(N)c3C(N)=O)ccc2n1 (centres unmarked) [Compound 1636, 5-amino-3-(2-ethoxyquinolin-6-yl)-1-(3-hydroxy-3-methylbutan-2-yl)-1H-pyrazole-4-carboxamide] | 0.018 | 0.058 |  |
| CC(C)(C)n1nc(-c2cnc3cc(C(F)(F)F)ccc3c2)c(C(N)=O)c1N [Compound 1555, 5-amino-1-tert-butyl-3-(7-(trifluoromethyl)quinolin-3-yl)-1H-pyrazole-4-carboxamide] | 0.222 |  |  |
| CN1CCC(Cn2nc(-c3ccc4ccccc4c3)c(C(N)=O)c2N)CC1 [Compound 21, 5-amino-1-((1-methylpiperidin-4-yl)methyl)-3-(naphthalen-2-yl)-1H-pyrazole-4-carboxamide] | 0.017 |  | 0.039 |
| Cc1oc2ccccc2c1-c1nn(C(C)(C)C)c(N)c1C(N)=O [Compound 27, 5-amino-1-(tert-butyl)-3-(2-methylbenzofuran-3-yl)-1H-pyrazole-4-carboxamide] |  |  | 0.71 |
| CCOc1ccc2cc(-c3nn(C4CCOC4)c(N)c3C(N)=O)ccc2n1 (centres unmarked) [Compound 1634, 5-amino-3-(2-ethoxyquinolin-6-yl)-1-(tetrahydrofuran-3-yl)-1H-pyrazole-4-carboxamide] | 0.003 |  |  |
| CC(C)(C)COc1ccc2cc(-c3nn(C(C)(C)C)c(N)c3C(N)=O)cnc2c1 [Compound 1587, 5-amino-1-(tert-butyl)-3-(7-(neopentyloxy)quinolin-3-yl)-1H-pyrazole-4-carboxamide] | 0.49 | 0.175 |  |
| CCOc1ccc2cc(-c3nn(C4CCCCCC4)c(N)c3C(N)=O)ccc2n1 [Compound 1632, 5-amino-1-cycloheptyl-3-(2-ethoxyquinolin-6-yl)-1H-pyrazole-4-carboxamide] | 0.006 | 0.007 |  |
| CC(C)Cn1nc(-c2ccc3ccccc3c2)c(C(N)=O)c1N [Compound 14, 5-amino-1-isobutyl-3-(naphthalen-2-yl)-1H-pyrazole-4-carboxamide] | 0.016 |  |  |
| NC(=O)c1c(-c2ccc3ccccc3c2)nn(CC2CC2)c1N [Compound 15, 5-amino-1-(cyclopropylmethyl)-3-(naphthalen-2-yl)-1H-pyrazole-4-carboxamide] | 0.01 |  | 0.007 |
| NC(=O)c1c(-c2ccc3ccccc3c2)nn(CC2CCCCC2)c1N [Compound 16, 5-amino-1-(cyclohexylmethyl)-3-(naphthalen-2-yl)-1H-pyrazole-4-carboxamide] | 0.15 |  | 0.059 |
| CC(C)(C)n1nc(-c2ccc3ccccc3n2)c(C(N)=O)c1N [Compound 35, 5-amino-1-(tert-butyl)-3-(quinolin-2-yl)-1H-pyrazole-4-carboxamide] | 0.29 |  | 0.049 |
| COc1ccc2cc(-c3nn(CC4CCN(C)CC4)c(N)c3C(N)=O)ccc2c1 [Compound 10, 5-amino-3-(6-methoxynaphthalen-2-yl)-1-((1-methylpiperidin-4-yl)methyl)-1H-pyrazole-4-carboxamide] | 0.014 | 0.035 |  |

| SMILES | IC50 (CpCDPK1) [µM] | IC50 (TgCDPK1; [1]) [µM] | IC50 (TgCDPK1) [µM] |
| --- | --- | --- | --- |
| CN1CCC(n2nc(-c3ccc4ccccc4c3)c(C(N)=O)c2N)CC1 [Compound 20, 5-amino-1-(1-methylpiperidin-4-yl)-3-(naphthalen-2-yl)-1H-pyrazole-4-carboxamide] | 0.013 |  | 0.026 |
| CCOc1ccc2cc(-c3nn(C(C)C(C)(C)CO)c(N)c3C(N)=O)cnc2c1 (centres unmarked) [Compound 1637, 5-amino-3-(7-ethoxyquinolin-3-yl)-1-(4-hydroxy-3,3-dimethylbutan-2-yl)-1H-pyrazole-4-carboxamide] | 0.004 | 0.012 |  |
| NC(=O)c1c(-c2ccc3ccccc3c2)nn(CCN2CCOCC2)c1N [Compound 23, 5-amino-1-(2-morpholinoethyl)-3-(naphthalen-2-yl)-1H-pyrazole-4-carboxamide] | 0.018 |  | 0.005 |
| CCOc1ccc2cc(-c3nn4c(c3C(N)=O)NC(=O)C4)cnc2c1 [Compound 1609, 6-(7-ethoxyquinolin-3-yl)-2-oxo-2,3-dihydro-1H-imidazo[1,2-b]pyrazole-7-carboxamide] | 0.577 | 1.43 |  |
| CC(C)(C)n1nc(-c2ccc3ncccc3c2)c(C(N)=O)c1N [Compound 37, 5-amino-1-(tert-butyl)-3-(quinolin-6-yl)-1H-pyrazole-4-carboxamide] | 0.07 |  | 0.01 |
| Cn1c(=O)[nH]c2cc(-c3nn(C(C)(C)C)c(N)c3C(N)=O)ccc21 [Compound 31, 5-amino-1-(tert-butyl)-3-(1-methyl-2-oxo-2,3-dihydro-1H-benzo[d]imidazol-5-yl)-1H-pyrazole-4-carboxamide] | > 3 | 0.64 |  |
| COc1ccc2cc(-c3n[nH]c(N)c3C(N)=O)ccc2c1 [Compound 11, 5-amino-3-(6-methoxynaphthalen-2-yl)-1H-pyrazole-4-carboxamide] | 0.048 |  | 0.081 |
| CCOc1ccc2cc(-c3n[nH]c(N)c3C(N)=O)cnc2c1 [Compound 1593, 5-amino-3-(7-ethoxyquinolin-3-yl)-1H-pyrazole-4-carboxamide] | 0.067 | 0.164 |  |
| CCOc1ccc2cc(-c3nn(CCO)c(N)c3C(N)=O)cnc2c1 [Compound 1577, 5-amino-3-(7-ethoxyquinolin-3-yl)-1-(2-hydroxyethyl)-1H-pyrazole-4-carboxamide] | 0.089 | 0.181 |  |
| COCCOc1ccc2cc(-c3nn(C(C)(C)C)c(N)c3C(N)=O)cnc2c1 [Compound 1570, 5-amino-1-(tert-butyl)-3-(7-(2-methoxyethoxy)quinolin-3-yl)-1H-pyrazole-4-carboxamide] | 0.255 | 0.258 |  |
| CCOc1ccc2nc(-c3nn(C(C)(C)C)c(N)c3C(N)=O)ccc2c1 [Compound 36, 5-amino-1-(tert-butyl)-3-(6-ethoxyquinolin-2-yl)-1H-pyrazole-4-carboxamide] | 0.39 |  | 0.35 |
| CCOc1ccc2cc(-c3nn(CC4CCCCC4)c(N)c3C(N)=O)cnc2c1 [Compound 1574, 5-amino-1-(cyclohexylmethyl)-3-(7-ethoxyquinolin-3-yl)-1H-pyrazole-4-carboxamide] | 0.03 |  |  |
| Cn1nc(N)c2ccc(-c3nn(C(C)(C)C)cc3C(N)=O)cc21 [Compound 29, 3-(3-amino-1-methyl-1H-indazol-6-yl)-1-(tert-butyl)-1H-pyrazole-4-carboxamide] |  | 0.017 |  |
| CCc1ccc2cc(-c3nn(C(C)(C)C)c(N)c3C(N)=O)cnc2c1 [Compound 1592, 5-amino-1-(tert-butyl)-3-(7-ethylquinolin-3-yl)-1H-pyrazole-4-carboxamide] | 0.085 |  |  |
| CCOc1ccc2cc(-c3nn(CC(F)(F)F)c(N)c3C(N)=O)cnc2c1 [Compound 1575, 5-amino-3-(7-ethoxyquinolin-3-yl)-1-(2,2,2-trifluoroethyl)-1H-pyrazole-4-carboxamide] | 0.005 |  |  |
| CCOc1ccc2cc(-c3nn(C(C)CO)c(N)c3C(N)=O)cnc2c1 (centres unmarked) [Compound 1627, 5-amino-3-(7-ethoxyquinolin-3-yl)-1-(1-hydroxypropan-2-yl)-1H-pyrazole-4-carboxamide] | 0.009 | 0.02 |  |
| CC(C)(C)n1nc(-c2ccc3cc(O)ccc3c2)c(C(N)=O)c1N [Compound 24, 5-amino-1-(tert-butyl)-3-(6-hydroxynaphthalen-2-yl)-1H-pyrazole-4-carboxamide] | 0.017 |  |  |
| Cn1c(N)nc2cc(-c3nn(C(C)(C)C)c(N)c3C(N)=O)ccc21 [Compound 33, 5-amino-3-(2-amino-1-methyl-1H-benzo[d]imidazol-5-yl)-1-(tert-butyl)-1H-pyrazole-4-carboxamide] |  |  | 0.73 |
| Nc1ncnc2c1c(-c1ccc3ccccc3c1)nn2CC1CCNCC1 [Compound 7, 3-(naphthalen-2-yl)-1-(piperidin-4-ylmethyl)-1H-pyrazolo[3,4-d]pyrimidin-4-amine, reference compound] | 0.001 |  |  |
